The values below come from patent US12458678B2, “Composition for preventing or treating prostatic hyperplasia comprising mixed extracts of Curcumae radix and Syzygii flos” (UNIVERSITY-INDUSTRY COOPERATION GROUP OF KYUNG HEE …, priority 2019, dated 2025).

Data set [1] deals with benign prostatic hyperplasia animal model. Description: Prostate tissue weight and prostate index in TP-induced benign prostatic hyperplasia rats. It is filed as in vivo, Sprague-Dawley (SD) rats. Conditions: FIG. 2 upper. As for the experimental part: For the benign prostatic hyperplasia animal model, 12-week-old male Sprague-Dawley (SD) rats (200±20 g) were purchased and tested from Daehan Biolink (Eumseong, Korea). After an acclimatization period for 1 week before the start of the experiment, feed and water were freely ingested for 6 weeks during the experiment. In an environment in which the light was controlled at intervals of 12 hours, the indoor temperature was 23±2° C., and the humidity was maintained at 70%. To induce benign prostatic hyperplasia, rats were divided into four groups, and six animals were randomly assigned to each group. Three groups among them were injected with TP (5 mg/kg/day) into the groin for 4 weeks, and one group, a normal control group, was injected with the same amount of ethanol. After induction of benign prostatic hyperplasia for 4 weeks, the experiment was performed by various treatment as follows: (i) a normal control group injected with ethanol for an additional four weeks (NC group); (ii) a disease control group injected with TP for an additional four weeks (benign prostatic hyperplasia, BPH group); […] In addition, in order to correct the difference in tissue weight according to body weight, the prostate index was calculated by dividing the weight of the prostate in mg with respect to 100 g of body weight.

Data set [2] deals with proliferating cell nuclear antigen (PCNA). Briefly: PCNA expression in prostate tissue, Western blot. Format: in vivo, Sprague-Dawley (SD) rats. As to conditions: Example 11.4, FIG. 14; comparison with finasteride. (Immunoblotting shows a protein as a band on a membrane.)
Data set [3] has as its system dihydrotestosterone (DHT). Briefly: Dihydrotestosterone (DHT) assay by ELISA in BPH rats. It is filed as in vivo, Sprague-Dawley (SD) rats. As to conditions: Example 11.1, FIG. 11; comparison with finasteride. On the technique in general: ELISA stands for enzyme-linked immunosorbent assay.
Another data set concerns cyclin B1. Description: Cyclin B1 expression in prostate tissue, Western blot. Conditions: Example 11.5, FIG. 15; comparison with finasteride. Format: in vivo, Sprague-Dawley (SD) rats.
The test system of data set [4] is prostate specific antigen (PSA). Briefly: Prostate specific antigen expression in prostate tissue, Western blot. It is filed as in vivo, Sprague-Dawley (SD) rats. Conditions: Example 11.2, FIG. 12; comparison with finasteride.
Data set [5] deals with prostate epithelial cells. Description: H&E staining of prostate tissue, prostate epithelial cell thickness. As to conditions: TP-induced BPH rats, FIG. 3B. It is filed as in vivo, Sprague-Dawley (SD) rats. As to the method:
To induce benign prostatic hyperplasia, rats were divided into four groups, and six animals were randomly assigned to each group. Three groups among them were injected with TP (5 mg/kg/day) into the groin for 4 weeks, and one group, a normal control group, was injected with the same amount of ethanol. After induction of benign prostatic hyperplasia for 4 weeks, the experiment was performed by various treatment as follows: (i) a normal control group injected with ethanol for an additional four weeks (NC group); (ii) a disease control group injected with TP for an additional four weeks (benign prostatic hyperplasia, BPH group); […] Prostate samples fixed in paraffin were cut to a thickness of 4 μm. […] Tissue sections were treated in 150 μl of 0.1% trypsin working solution (composition: trypsin 0.4 ml, calcium 0.01 g, chloride 0.01 g in D.W. 7 ml) for 15 minutes, and then blocked using fetal bovine serum (FBS). For H&E staining, the cut tissue was immersed in hematoxylin solution for 5 minutes, distilled water for 5 minutes, and eosin solution for 30 seconds, and then dried and fixed. The slides were observed using an Olympus IX71 Research Inverted Phase microscope (Olympus Co., Tokyo, Japan), and the density was measured using ImageJ 1.47v software (National Institute of Health, MD, USA).

Data set [6] relates to sperm count in the epididymis. Description: Analysis of sperm count in epididymis. It is filed as in vivo, SD rats. Conditions: cauda epididymis of BPH rats; FIG. 17. As for the experimental part:
After excision of cauda epididymis from […] SD rats, it was cut into small pieces twice. Then, they were immersed in 4 ml of PBS for 1 hour to cause the sperm to spread into the PBS solution. After mixing PBS containing sperm with the same amount of methanol, they were observed using a hematocytometer and an Olympus IX71 Research Inverted Phase microscope (Olympus Co., Tokyo, Japan).
In order to check the sperm count, after excision of the cauda epididymis of the SD rat group used in the above-mentioned Examples, it was cut into small pieces twice. Then, they were placed in 4 ml of PBS for 1 hour to allow the sperm to spread into the PBS solution. After mixing PBS containing sperm with the same amount of methanol, they were observed using a hematocytometer and an Olympus IX71 Research Inverted Phase microscope.

In data set [1] (TP-induced BPH rats, UM-002 50 mg/kg/day or finasteride 1 mg/kg/day for 4 weeks, BPH group 1.73 g, NC group 0.73 g), `CC(C)(C)NC(=O)[C@H]1CC[C@H]2[C@@H]3CC[C@H]4NC(=O)C=C[C@]4(C)[C@H]3CC[C@]12C` [finasteride] registered an average prostate weight of 0.93 g. The “prostate weight lower than that of the BPH group” value in data set [1] (vs BPH group 1.73 g) was 54%. Besides, in data set [2], the “PCNA expression inhibited based on the BPH group” value is reported as 45%. Further, in data set [3], the “DHT expression inhibited based on the BPH group” value is 77%. Also, the “cyclin B1 expression inhibited based on the BPH group” value in the data set with cyclin B1 is 41%. For the same compound, the “PSA expression inhibited based on the BPH group” value in data set [4] amounted to 55%. In addition, the “thickness of prostate epithelial cells” value in data set [5] (BPH group 12.06 μm, NC group 9.68 μm) was determined as 9.38 μm. The “prostate epithelial cell thickness reduced compared to the BPH group” value in data set [5] was 22%. Also, the “sperm count compared to the NC group” value in data set [6] is on record as 56%.
